According to patent US12109221B2, “Combination therapy for treating cancer” (LEUKOS BIOTECH, S.L., priority 2017, dated 2024):

Experiments:
MonoMac-1 AML cells = assay: In vivo xenotransplantation assay, human AML cells in bones by flow cytometry; parameters: species or system NSG mice; conditions: 5 mg/kg apomorphine and 30 mg/kg cytarabine, intraperitoneally, 5 days
Protocol: FIG. 4. […] Bulsulfan-conditioned NSG adult mice were intravenously injected with 1×10^6 MonoMac-1 AML cells. One week after transplantation, mice were treated with 5 mg/kg apomorphine (APO) and/or 30 mg/kg cytarabine (CYT) daily for 5 days. Mice were culled and bones were harvested. Human leukemia cells were detected based on the expression of hCD45 on the surface membrane by flow cytometry. Normalized number of human AML cells against control-treated mice is represented. Bars correspond to mean values and error bars to SEM. ** p<0.01; **** p<0.0001. hAML: #human AML cells (referred to 15 control). CTR: Control.
In order to verify that the synergic cytotoxic effect was also detectable in vivo, pharmacological-conditioned NSG mice were transplanted intravenously with 1×10^6 MonoMac-1 AML cells. One week after transplantation, mice were treated for 5 days with 5 mg/kg apomorphine and/or 30 mg/kg cytarabine, both of them intraperitoneally. Mice were culled and bones were harvested and analyzed for human leukemia by flow cytometry.

[1] = system: Sp1 gene expression in HL-60 AML cells; assay: Sp1 mRNA expression by semi-quantitative PCR; assay type: cell-based, human; conditions: HL-60 cells, 72 h; 10 µM apomorphine, 10 µM methiothepin, 5 µM SB224289
Protocol: FIG. 7. Treatment with HTR1 antagonists decreased Sp1 gene expression. HL-60 AML cells were treated with 10 μM apomorphine (APO), 10 μM methiothepin (MET) or 5 μM SB224289 (SB9) for 72 h. Total RNA was isolated and cDNA was obtained afterwards. Semi-quantitative PCR was performed to detect gene expression. Sp1 gene expression is represented as 2^(−ΔΔCt) using GAPDH as the endogenous control. Bars represent the mean value of triplicates. Error bars correspond to SEM. * p<0.05; **** p<0.0001. ddCt: 2^(−ΔΔCt).
At a gene expression level, the expression of Sp1 mRNA was studied. Sp1 has been implicated with chemotherapeutic resistance (Zhang et al. Mol Cancer 2015; 14:56). HL-60 AML cells were treated for 72 h with 10 µM apomorphine, 10 µM methiothepin and 5 µM SB224289. Total RNA as isolated and mRNA was retrotranscribed to cDNA. Semi-quantitative PCR was performed with specific TaqMan oligo pairs.

[2] = system: AML cell lines (TPH-1 and MonoMac1); assay: Cell viability by flow cytometry 72 h after treatment, HTR1 antagonist plus cytarabine, combination index; assay type: cell-based, human; conditions: in combination with cytarabine, CI below 1 = synergism
Protocol: FIGS. 1A and 1B. […] FIG. 1A. Cell viability was measured by flow cytometry (correct FSC-SSC profile, 7-AAD-, Hoechst33342^low). Normalized number of live cells is graphed. Bars represent the mean value and error bars represent SEM. *** p<0.001; **** p<0.0001. NLC: Number of live cells (referred to control). FIG. 1B. Combination index (CI) value of each combination.
(§1) Synergy is determined herein by means of the Combination Index Model, described previously (Chou T C, Pharmacological Reviews 58: 621-681, 2006). The CI was measured using Compusyn open software. CI values below 1 indicate synergism. CI values about 1 indicate additivism and CI values above 1 indicate antagonisms.

[3] = system: AML cell lines (HL-60 and MonoMac-1); assay: Cell viability by flow cytometry 72 h after treatment, HTR1 antagonist plus azacitidine or decitabine, combination index; assay type: cell-based, human
Protocol: FIGS. 2A and 2B. […] MonoMac-1 cells were cultured for 72 h in a complete RPMI medium in the presence of 2, 5, 10 μM apomorphine (APO) or methiothepin (MET), and 100, 200, 1000 nM azacitidine (AZA). FIG. 2A. Cell viability was measured by flow cytometry (correct FSC-SSC profile, 7-AAD-, Hoechst33342^low). Normalized number of live cells is graphed. Bars represent the mean value and error bars represent SEM. *** p<0.001; **** p<0.0001. NLC: Number of live cells (referred to control). FIG. 2B. Combination index (CI) value of each combination.
FIGS. 3A and 3B. […] Cell viability was measured by flow cytometry (correct FSC-SSC profile, 7-AAD-, Hoechst33342^low). […]
Synergy is determined herein by means of the Combination Index Model, described previously (Chou T C, Pharmacological Reviews 58: 621-681, 2006). The CI was measured using Compusyn open software. […]
Next, the inventors examined the interaction between HTR1 antagonists and azacitidine. […] Cell viability was measured by flow cytometry (live cells according to the correct FSC-SSC profile, 7-AAD negativity and Hoechst 33342 positivity) 72 h after treatment.
Similarly, decitabine was also interrogated for its potential cytotoxic interaction with HTR1 antagonists. […] 72 h after treatment, cell viability was measured by flow cytometry (live cells according to the correct FSC-SSC profile, 7-AAD negativity and Hoechst 33342 positivity).

[4] = system: AML cell line (MonoMac-1); assay: Cell viability by flow cytometry 72 h after treatment, HTR1 antagonist plus cladribine, fludarabine or methotrexate, combination index; assay type: cell-based, human
Protocol: FIGS. 8A and 8B. […] MonoMac-1 cells were cultured for 72 h in a complete RPMI medium in the presence of 5, 10 μM apomorphine (APO) or methiothepin (MET), and 10, 27, 55 nM cladribine (CLD). FIG. 8A. Combination index (CI) value of CLD and APO combination. FIG. 8B. CI value of CLD and MET combination.
FIGS. 9A and 9B. […] MonoMac-1 cells were cultured for 72 h in a complete RPMI medium in the presence of 5, 10 μM apomorphine (APO) or methiothepin (MET), and 200, 500, 1000 nM fludarabine (FLD). FIG. 9A. CI value of FLD and APO combination. FIG. 9B. CI value of FLD and MET combination.
FIG. 10. […] MonoMac-1 cells were cultured for 72 h in a complete RPMI medium in the presence of 5, 10 μM apomorphine (APO), and 2.5, 6.25, 12.5 nM methotrexate (MTX). CI value of MTX and APO combination.
as §1
Cladribine is a cytostatic drug indicated for myeloid neoplasias. […] 72 h after treatment, cell viability was measured by flow cytometry (live cells according to the correct FSC-SSC profile, 7-AAD negativity and Hoechst 33342 positivity, and volumetrically counted).
The potential cytotoxic interaction of fludarabine with HTR1 antagonists was also examined on the same experimental conditions of the example 8. […] 72 h after treatment, cell viability was measured by flow cytometry (live cells according to the correct FSC-SSC profile, 7-AAD negativity and Hoechst 33342 positivity, and volumetrically counted).
Finally, the interaction of the antineoplastic drug methotrexate with HTR1 antagonist was studied. […] 72 h after treatment, cell viability was measured by flow cytometry (live cells according to the correct FSC-SSC profile, 7-AAD negativity and Hoechst 33342 positivity, and volumetrically counted).

[5] = system: HL-60 and Ara-C-resistant HL-60; assay: Sensitivity to HTR1 antagonists, parental versus Ara-C-resistant cells, cell viability by flow cytometry; assay type: cell-based, human; conditions: HL-60 parental vs Ara-C-resistant HL-60; 72 h
[6] = system: KG-1 and Ara-C-resistant KG-1; assay: as above; assay type: cell-based, human; conditions: KG-1 parental vs Ara-C-resistant KG-1; 72 h

| Structure (SMILES) | effect of the combination in in vivo treatment of AML-bearing mice (MonoMac-1 AML cells) | Sp1 gene expression [1] | interaction with cytarabine according to the combination index model [2] | interaction with azacitidine (combination index) ([3]; in combination with azacitidine) | interaction with decitabine (combination index) ([3]; in combination with decitabine) | interaction with cladribine (combination index) ([4]; in combination with cladribine) | interaction with fludarabine (combination index) ([4]; in combination with fludarabine) | interaction with methotrexate (combination index) ([4]; in combination with methotrexate, low and high concentrations) | EC50, parental compared to Ara-C-resistant cells [5] | EC50, parental compared to Ara-C-resistant cells [6] |
| --- | --- | --- | --- | --- | --- | --- | --- | --- | --- | --- |
| Nc1ccn([C@@H]2O[C@H](CO)[C@H](O)[C@@H]2O)c(=O)n1 [Ara-C, 4-amino-1-[(2R,3S,4R,5R)-3,4-dihydroxy-5 (hydroxymethyl)oxolan-2-yl]pyrimidin-2-one] | synergistic effect | – | – | – | – | – | – | – | – | – |
| Cc1nc(-c2ccc(-c3ccc(C(=O)N4CCc5cc6c(cc54)C4(CCN(C)CC4)CO6)cc3)c(C)c2)no1 [SB224289] | – | downregulation of Sp1 gene expression | – | – | – | – | – | – | – | – |
| CN1CCc2cccc3c2[C@H]1Cc1ccc(O)c(O)c1-3 [apomorphine, (6aR)-6-methyl-5,6,6a, 7-tetrahydro-4H-dibenzo[de, g]quinoline-10,11-diol] | synergistic effect | downregulation of Sp1 gene expression | act synergically | synergically anti-leukemic effect | synergically anti-leukemic effect | synergically anti-leukemic effect | synergically antileukemic effect | synergically anti-leukemic effect | equivalent EC50 values | equivalent EC50 values |
